Measurements taken from US20060052356A1, “Pharmacological methods to modulate oxygen consumption” (priority 2004, published 2006).

What was measured:
Sprague Dawley rats = experiment: Toxicity and mortality in anesthetized rats given protein synthesis inhibitors (Example 3)
protein synthesis = experiment: 35S-methionine incorporation into tissue protein after i.v. protein synthesis inhibitor in anesthetized rats (Example 3); type: in vivo, Sprague Dawley rats

`C[C@H]1c2cccc(O)c2C(=O)C2=C(O)[C@]3(O)C(=O)C(C(N)=O)=C(O)[C@@H](N(C)C)[C@@H]3[C@@H](O)[C@@H]21` [Doxycycline] showed a mortality (Sprague Dawley rats; at doses <1/3 of LD50) of roughly 66%.

`O=c1c(-c2ccc(O)cc2)coc2cc(O)cc(O)c12` [Genistein] was tested, and the “inhibition of protein synthesis (in words)” value (shortened to “inhibition”) (protein synthesis; single agents, intravenous) was “poor inhibitor” and the toxicity (Sprague Dawley rats; rat, in vivo) was “toxicity at low doses”.

For `COc1ccc(C[C@H]2NC[C@H](O)[C@H]2OC(C)=O)cc1` [anisomycin], the “inhibition” value (protein synthesis; rat, in vivo, iv) was “substantial inhibition”.

`COc1ccc(C[C@H](N)C(=O)N[C@H]2[C@@H](O)[C@H](n3cnc4c(N(C)C)ncnc43)O[C@@H]2CO)cc1` [puromycin] was tested, and the “inhibition” value (protein synthesis; single agents, intravenous) was “substantial inhibition”.
